# Source: patent US11680050B2, “Crystalline forms of ozanimod and ozanimod hydrochloride, and processes for preparation thereof” (RECEPTOS LLC, priority 2016, dated 2023)
# Key:
# Format in all cases: physicochemical
# [1] = Mechanical stability, manual grinding for 5 minutes in mortar, XRPD; conditions: ground manually for 5 minutes, XRPD before and after
# Method: Solid samples of Form CS3, Form CS5, Form CS6 of ozanimod and Form CS1 of ozanimod hydrochloride were ground manually for 5 minutes in mortar.
# [2] = Particle size distribution test (laser particle size analyzer, wet process); conditions: for MV, average particle size calculated by volume: dispersion medium Isopar G; for D10 / D50 (median diameter) / D90: volume distribution, Isopar G
# Method: The particle size distribution test in the present disclosure is acquired by the S3500 laser particle size analyzer of Microtrac. Microtrac S3500 is equipped with the SDC (Sample Delivery Controller). The test is carried out by wet process, and the dispersion medium is Isopar G The parameters are as follow:
# Certain amount of samples of Form CS1, Form CS2, Form CS3, Form CS5, Form CS6 of ozanimod and Form CS1 of ozanimod hydrochloride were taken for particle size distribution test.
# [3] = Stability assessment in constant temperature and humidity chambers (HPLC purity, XRPD crystalline form); conditions: for 1 week purity % / 2 week purity % / 4 week purity %: HPLC; for 2 week purity %: 2 weeks; for Change of the crystalline form: XRPD; for Stability, overall conclusion of the storage test: after storage under all conditions tested for the form
# Method: (§1) Three solid samples of Form CS1 were placed in constant temperature and humidity chambers at 25° C./60% RH, 40° C./75% RH and 60° C./75% RH for 4 weeks. XRPD was used to test the crystalline form at the end of week 4. HPLC was used to measure the chemical purity at the end of week 1, 2, and 4. The XRPD comparison result is shown in FIG. 31 (from top to bottom: XRPD pattern of Form CS1 before and after being stored under 25° C./60% RH, 40° C./75% RH and 60° C./75% RH for 4 weeks), and the results are shown in Table 20.
# as §1, with “Four” for “Three”, “CS2” for “CS1”, “weeks and 80° C. for 1 week.” for “weeks.”, “32” for “31”, “weeks and 80° C. for 1 week),” for “weeks),”, “21.” for “20.”
# as §1, with “Form CS3” for “Form CS1”, “comparison pattern” for “comparison result”, “FIG. 33” for “FIG. 31”, “Table 22.” for “Table 20.”
# as §1, with “Form CS5” for “Form CS1”, “for 2” for “for 4”, “[…].” for “4. HPLC was used to measure the chemical purity at the end of week 1, 2, and 4.”, “comparison pattern” for “comparison result”, “FIG. 34” for “FIG. 31”, “Table 23.” for “Table 20.”
# Two samples of Form CS6 were placed in constant temperature and humidity chambers at 25° C./60% RH and 40° C./75% RH for 4 weeks. XRPD was used to test the crystalline form at the end of week 4. HPLC was used to measure the chemical purity at the end of week 1, 2, and 4.The XRPD comparison result is shown in FIG. 35 (from top to bottom: XRPD pattern of Form CS6 before and after being stored under 25° C./60% RH and 40° C./75% RH for 4 weeks), and the results are shown in Table 24.
# Four samples of Form CS1 of ozanimod hydrochloride were placed in constant temperature and humidity chambers at 25° C./60% RH, 40° C./75% RH and 60° C./75% RH for 4 weeks and 80° C. for 1 week. XRPD was used to test the crystalline form at the end of week 4. HPLC was used to measure the chemical purity at the end of week 1, 2, and 4. The XRPD comparison pattern is shown in FIG. 36 (from top to bottom: XRPD pattern of ozanimod hydrochloride Form CS1 before and after being stored under 25° C./60% RH, 40° C./75% RH and 60° C./75% RH for 4 weeks and 80° C. for 1 week), and the results are shown in Table 25.
# [4] = Hygroscopicity assessment by dynamic vapor sorption (DVS); conditions: for Weight gain under 80% RH: DVS, 25° C.; for Hygroscopicity class according to the definition of hygroscopicity: Chinese Pharmacopoeia 2015, 25° C., 80% RH
# Method: Dynamic Vapor Sorption (DVS) is measured via an SMS (Surface Measurement Systems Ltd.) intrinsic DVS. Typical Parameters for DVS test are as follows:
# Gas and flow rate: N2, 200 mL/min
# RH range: 0% RH to 95% RH […]
# Dynamic vapor sorption (DVS) was applied to test hygroscopicity of Form CS1 of ozanimod hydrochloride with about 10 mg of samples.
# Description and definition of hygroscopicity (Chinese Pharmacopoeia 2015 edition appendix Drug hygroscopic test guidelines, test at 25° C.+/−1° C., 80% RH). • deliquescent: Sufficient water is absorbed to form a liquid; • very hygroscopic: Increase in mass is equal to or greater than 15 percent; • hygroscopic: Increase in mass is less than 15 percent and equal to or greater than 2 percent; • slightly hygroscopic: Increase in mass is less than 2 percent and equal to or greater than 0.2 percent. • non hygroscopic or almost non hygroscopic: Increase in mass is less than 0.2 percent.
# [5] = Solubility assessment of saturated solutions in SGF, FeSSIF and water, measured by HPLC
# Method: Form CS1 and Form CS1 of ozanimod hydrochloride were suspended into SGF (Simulated gastric fluids) and FeSSIF (Fed state simulated intestinal fluids, pH=5.0) to obtain saturated solutions. After being equilibrated for 1 h, 4 h and 24 h, concentrations of the saturated solutions were measured by HPLC.
# Form CS3 and Form CS5 were suspended into SGF (Simulated gastric fluids) and water, and Form CS2 was suspended into FeSSIF (Fed state simulated intestinal fluids) to obtain saturated solutions. After being equilibrated for 1 h, 4 h and 24 h, concentrations of the saturated solutions were measured by HPLC.
Form change under mechanical stress [1],"MV, average particle size calculated by volume [2] [μm]",D10 [2] [μm],D50 (median diameter) [2] [μm],D90 [2] [μm],"1 week purity % ([3]; 25° C./60% RH, 1 week) [%]",2 week purity % ([3]; 25° C./60% RH) [%],"4 week purity % ([3]; 25° C./60% RH, 4 weeks) [%]","Change of the crystalline form ([3]; 25° C./60% RH, 4 weeks)","1 week purity % ([3]; 40° C./75% RH, 1 week) [%]",2 week purity % ([3]; 40° C./75% RH) [%],"4 week purity % ([3]; 40° C./75% RH, 4 weeks) [%]","Change of the crystalline form ([3]; 40° C./75% RH, 4 weeks)","Stability, overall conclusion of the storage test [3]",Weight gain under 80% RH [4] [%],"1 week purity % ([3]; 60° C./75% RH, 1 week) [%]",2 week purity % ([3]; 60° C./75% RH) [%],"4 week purity % ([3]; 60° C./75% RH, 4 weeks) [%]","Change of the crystalline form ([3]; 60° C./75% RH, 4 weeks)","Solubility ([5]; SGF, 1 h) [µg/mL]",Structure (SMILES),other results
No form change,68.91,12.87,46.47,161.7,98.44,98.21,98.27,No change,98.47,98.33,97.97,No change,good stability,1.68,,,,,,"CC(C)Oc1ccc(-c2nc(-c3cccc4c3CC[C@@H]4NCCO)no2)cc1C#N [Form CS6, ozanimod]",
No form change,66.62,20.36,51.80,130.8,99.53,99.30,99.31,No change,99.52,99.28,99.17,No change,good stability,2.25,99.36,98.84,98.54,No change,540,"CC(C)Oc1ccc(-c2nc(-c3cccc4c3CC[C@@H]4NCCO)no2)cc1C#N [Form CS3, ozanimod]","Solubility ([5]; SGF, 4 h): 520 µg/mL; Solubility ([5]; SGF, 24 h): 540 µg/mL; solubility at 1 h ([5]; water, thermodynamic from solid, H2O, 1 h): 170 µg/mL; solubility at 24 h ([5]; water, thermodynamic from solid, H2O, 24 h): 350 µg/mL"
,23.24,5.78,14.20,42.35,99.85,99.63,99.62,No change,99.84,99.78,99.55,No change,good stability,0.25,99.91,99.60,99.63,No change,,"CC(C)Oc1ccc(-c2nc(-c3cccc4c3CC[C@@H]4NCCO)no2)cc1C#N [Form CS2, ozanimod]","1 week purity % ([3]; 80° C., 1 week): 99.71%; Change of the crystalline form ([3]; 80° C., 1 week): No change; Solubility ([5]; FeSSIF (pH=5.0), 1 h): 2000 µg/mL; Hygroscopicity class according to the definition of hygroscopicity [4]: slightly hygroscopic (Increase in mass is less than 2 percent and equal to or greater than 0.2 percent)"
,22.40,3.15,11.20,48.90,99.12,99.18,98.97,No change,99.16,99.17,98.92,No change,good stability,0.36,99.26,99.13,98.71,No change,6400,"CC(C)Oc1ccc(-c2nc(-c3cccc4c3CC[C@@H]4NCCO)no2)cc1C#N [Form CS1, ozanimod]","Solubility ([5]; FeSSIF (pH=5.0), 1 h): 4200 µg/mL; Solubility ([5]; FeSSIF (pH=5.0), 4 h): 7300 µg/mL; Solubility ([5]; SGF, 4 h): 6300 µg/mL; Solubility ([5]; SGF, 24 h): 5900 µg/mL; solubility at 24 h ([5]; fed state simulated intestinal fluid (FeSSIF), pH 5, fessif, thermodynamic from solid, FeSSIF (pH=5.0), 24 h): 7700 µg/mL; Hygroscopicity class according to the definition of hygroscopicity [4]: slightly hygroscopic (Increase in mass is less than 2 percent and equal to or greater than 0.2 percent)"
